This is an account of results in publication PMC6026847, “Synthesis and Evaluation of the First Fluorescent Antagonists of the Human P2Y2 Receptor Based on AR-C118925” (Journal of Medicinal Chemistry, 2018).

In general, EC50 refers to the concentration needed to bring the measured effect to its halfway point.

Experiment [1] deals with hP2Y2. On the set-up: method as in PMID 8564228. The following applies: endogenous agonists; cited from earlier work.
Experiment [2] has as its target T1, NLuc-P2Y2R (Homo sapiens, UniProt P41231).
T1 construct: expressed in transfected cells
Kind of experiment: NanoBRET saturation binding in NLuc-P2Y2R 1321N1 astrocytoma cells. The following applies: for Kd / NanoBRET pKd: saturation binding curves, 1321N1 cells expressing NLuc-P2Y2R, mean ± SEM; for specific NanoBRET signal: fixed 10 μM fluorescent conjugate in presence or absence of 10 μM 1, among 78–91 (Figure S1); for NanoBRET pKd: Table 4. The protocol:
To determine whether any of these conjugates had affinities for P2Y2R and consequently if they could be used in NanoBRET binding assays, a 1321N1 astrocytoma cell line expressing recombinant P2Y2R tagged on its N-terminus with NLuc (NLuc-P2Y2R) was generated. […] These NLuc-P2Y2 cells were treated with increasing concentrations of 66–69 and then treated with the NLuc substrate, furimazine, before the resulting BRET signal was monitored. […] However, this did illustrate the power of using NanoBRET to monitor ligand binding to low-affinity receptors.
Nucleophilic displacement of the 2-chloro substituent of 43 by either tert-butyl 3-aminopropanoate or tert-butyl 6-aminohexanoate gave the corresponding tert-butyl esters (70 and 71). […] The carboxylic acids were generated from the tert-butyl esters via TFA-mediated hydrolysis and subsequently coupled with tert-butyl (2-aminoethyl)carbamate or tert-butyl (2-(2-aminoethoxy)ethyl)carbamate to generate the corresponding amides (74–77). The Boc protecting groups were removed using TFA, and the resulting amines were coupled with the appropriate commercially available BODIPY succinimidyl ester (SE), generating a small library of 14 fluorescent conjugates (78–91). These fluorescent conjugates were initially tested using the aforementioned NanoBRET binding assay at fixed concentrations of 10 μM in the presence or absence of 10 μM 1 (see Figure S1 in the Supporting Information).
The saturation and competition binding assays were performed according to the methodology of Stoddart.[18] Briefly, the assays were performed on stably transfected NLucP2Y2-1321N1 cells that had been seeded 24 h prior to the experiment in white Thermo Scientific Matrix 96-well microplates. The medium in each well was removed and replaced with HBSS containing apyrase (1 U/mL) and the required concentration of the fluorescent ligand with or without the competing ligand. Upon the addition of the fluorescent ligand, the cells were incubated for 1 h at 37 °C without CO2. The NLuc substrate, furimazine (Promega), was then added to a final concentration of 10 μM, and the plate was incubated for a further 5 min at 37 °C without CO2. The luminescence and resulting BRET were measured using a PHERAstar FS plate reader (BMG Labtech) at room temperature. For the assays involving 97, sequential measurements of the filtered light emissions were made at 460 nm (80 nm bandpass) and >610 nm (long-pass), and the raw BRET ratios were calculated by dividing the >610 nm emissions by the 460 nm emissions. For the assays involving 98, the measurements were made at 475 nm (30 nm bandpass) and 535 nm (30 nm bandpass), and the raw BRET ratios were calculated by dividing the 535 nm emissions by the 475 nm emissions.
The total and nonspecific saturation binding curves were fitted simultaneously using eq 2: [drawing 7] 2 where Bmax is the maximum specific BRET signal, [b] is the nanomolar concentration of the fluorescent ligand, Kd is the equilibrium dissociation constant in nanomolar, M is the slope of the nonspecific-binding component, and C is the intercept with the Y-axis. The pKd is −logKd.
On the technique in general: Bioluminescence resonance energy transfer reports proximity on the nanometre scale.

Experiment [3] has as its target T2, hP2Y2R (Homo sapiens, UniProt P41231).
T2 construct: The 1321N1 cells expressing wild-type P2Y2R (P2Y2R-1321N1) were gifted by Dr. Elizabeth Rosethorne; expressed in transfected cells; host or cells: 1321N1 astrocytoma cells (P2Y2R-1321N1), gifted
The experiment in a line: Calcium-mobilization assay in P2Y2-1321N1 cells (antagonism of UTPγS). The format is cell-based.

In experiment [4] the target is T2, hP2Y2R. The experiment in a line: Confocal microscopy of fluorescent ligands on 1321N1 astrocytoma cells expressing hP2Y2R. The format is cell-based. The settings on record: for membrane-specific fluorescence after pretreatment with 1: 100 nM fluorescent ligand plus 10 μM 1, 30 min at 37 °C; for confocal imaging: fluorescence localisation: 100 nM fluorescent ligand, 1321N1 astrocytoma cells expressing hP2Y2R. The method, then: The P2Y2R-1321N1 cells were grown to approximately 80% confluency on eight-well Labtek chambered cover glasses (Nunc Nalgene) in normal growth medium. The growth medium was removed and replaced with HBSS containing apyrase (1 U/mL) and either 1 (10 μM) or the vehicle, and the cells incubated for 30 min at 37 °C without CO2. The cells were then incubated with 97 or 98 at the required concentration for 10 min at room temperature prior to the collection of the single-equatorial confocal images. The images were obtained on a Zeiss LSM710 confocal microscope using a 40× c-Apochromat 1.2NA water-immersion objective. For 97, the images were collected using a 633 nm excitation wavelength and a 488/561/633 dichroic, and the emissions were collected through a 650LP filter. For 98, a 488 nm excitation wavelength was used with the same dichroic, and the emissions were collected using an LP575 filter. In each case, a pinhole diameter of 1 airy unit was used, and the laser power, gain, and offset were kept the same for all of the samples within each experiment. For both 97 and 98, the images presented are as representative of an individual experiment with matched conditions. Linear adjustments to the image brightness and contrast have been applied equally across all of the comparative images using Zen software in order to prepare the images for presentation.

The mark [5] stands for this setting: 10 μM fluorescent ligand, rightward shift of agonist dose–response curve, hP2Y2R-1321N1 cells, read-out: pKb (converted).

Like-named read-outs stand apart in the source and are kept apart here.

T2 sequence (P41231 whole entry): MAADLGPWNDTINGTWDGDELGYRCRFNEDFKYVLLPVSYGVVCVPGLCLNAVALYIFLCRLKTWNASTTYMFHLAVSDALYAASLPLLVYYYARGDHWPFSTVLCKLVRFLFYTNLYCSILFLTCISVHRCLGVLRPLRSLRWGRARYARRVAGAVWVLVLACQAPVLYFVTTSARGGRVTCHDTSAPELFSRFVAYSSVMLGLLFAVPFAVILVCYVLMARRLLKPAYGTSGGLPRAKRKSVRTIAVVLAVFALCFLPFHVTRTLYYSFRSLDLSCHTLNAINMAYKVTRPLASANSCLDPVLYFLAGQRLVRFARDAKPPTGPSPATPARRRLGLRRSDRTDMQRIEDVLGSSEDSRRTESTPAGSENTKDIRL
T1 sequence (P41231 2-377 limits assumed): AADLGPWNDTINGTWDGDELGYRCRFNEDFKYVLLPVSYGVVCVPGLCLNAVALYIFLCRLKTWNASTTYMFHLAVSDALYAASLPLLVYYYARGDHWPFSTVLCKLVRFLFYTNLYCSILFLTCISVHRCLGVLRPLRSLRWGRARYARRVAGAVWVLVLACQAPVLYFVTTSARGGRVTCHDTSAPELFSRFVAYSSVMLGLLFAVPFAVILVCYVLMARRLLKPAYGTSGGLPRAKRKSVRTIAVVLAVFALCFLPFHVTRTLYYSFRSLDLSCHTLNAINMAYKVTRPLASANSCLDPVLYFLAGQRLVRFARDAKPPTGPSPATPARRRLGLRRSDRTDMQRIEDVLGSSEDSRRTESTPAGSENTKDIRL

Consider `Nc1ncnc2c1ncn2[C@@H]1O[C@H](COP(=O)(O)OP(=O)(O)OP(=O)(O)O)[C@@H](O)[C@H]1O` [ATP, adenosine-5′-triphosphate], for which the EC50 in experiment [1] is 230 nM.

On to `Cn1cc(C2c3ccc(Cl)cc3C=Cc3sc(NCCC(=O)NCCOCCOCCNC(=O)CCCCCNC(=O)COc4ccc(/C=C/C5=[N+]6C(=Cc7ccc(-c8cccs8)n7[B-]6(F)F)C=C5)cc4)nc32)c(=S)[nH]c1=O` (centres unmarked) [Example 80, (E)-N-(2-(2-(2-(3-((7-Chloro-4-(1-methyl-2-oxo-4-thioxo-1,2,3,4-tetrahydropyrimidin-5-yl)-4H-benzo[5,6]cyclohepta[1,2-d]thiazol-2-yl)amino)propanamido)ethoxy)ethoxy)ethyl)-6-(2-(4-(2-(5,5-difluoro-7-(thiophen-2-yl)-5H-4λ^4,5λ^4-dipyrrolo[1,2-c:2′,1′-f][1,3,2]diazaborinin-3-yl)vinyl)phenoxy)acetamido)hexanamide], for which the Kd in experiment [2] (Table 5, read-out: pKd (converted)) is 5130 nM. Moreover, in experiment [2], the “specific NanoBRET signal” value was “largest specific NanoBRET signals”.

As for `Cc1cc(C)n2c1C=C1C=CC(CCC(=O)NCCNC(=O)CCNc3nc4c(s3)C=Cc3cc(Cl)ccc3C4c3cn(C)c(=O)[nH]c3=S)=[N+]1[B-]2(F)F` (centres unmarked) [Example 85, 3-((7-Chloro-4-(1-methyl-2-oxo-4-thioxo-1,2,3,4-tetrahydropyrimidin-5-yl)-4H-benzo[5,6]cyclohepta[1,2-d]thiazol-2-yl)amino)-N-(2-(3-(5,5-difluoro-7,9-dimethyl-5H-4λ^4,5λ^4-dipyrrolo[1,2-c:2′,1′-f][1,3,2]diazaborinin-3-yl)propanamido)ethyl)propanamide], the “specific NanoBRET signal” value in experiment [2] is recorded as “largest specific NanoBRET signals”.

For `Cc1cc(C)n2c1C=C1C=CC(CCC(=O)NCCCCCC(=O)NCCNC(=O)CCNc3nc4c(s3)C=Cc3cc(Cl)ccc3C4c3cn(C)c(=O)[nH]c3=S)=[N+]1[B-]2(F)F` (centres unmarked) [Example 86, N-(2-(3-((7-Chloro-4-(1-methyl-2-oxo-4-thioxo-1,2,3,4-tetrahydropyrimidin-5-yl)-4H-benzo[5,6]cyclohepta[1,2-d]thiazol-2-yl)amino)propanamido)ethyl)-6-(3-(5,5-difluoro-7,9-dimethyl-5H-4λ^4,5λ^4-dipyrrolo[1,2-c:2′,1′-f][1,3,2]diazaborinin-3-yl)propanamido)hexanamide], the “specific NanoBRET signal” value in experiment [2] is “largest specific NanoBRET signals”. In addition, in experiment [3] (Table 7, Gaddum equation, shift of agonist dose–response curve by a single antagonist concentration, mean ± SEM, read-out: pKb Ca2+ mobilization (converted)), the Kb is 501 nM.

For `Cc1cc(C)n2c1C=C1C=CC(CCC(=O)NCCCCCC(=O)NCCOCCOCCNC(=O)CCNc3nc4c(s3)C=Cc3cc(Cl)ccc3C4c3cn(C)c(=O)[nH]c3=S)=[N+]1[B-]2(F)F` (centres unmarked) [Example 87, N-(2-(2-(2-(3-((7-Chloro-4-(1-methyl-2-oxo-4-thioxo-1,2,3,4-tetrahydropyrimidin-5-yl)-4H-benzo[5,6]cyclohepta[1,2-d]thiazol-2-yl)amino)propanamido)ethoxy)ethoxy)ethyl)-6-(3-(5,5-difluoro-7,9-dimethyl-5H-4λ^4,5λ^4-dipyrrolo[1,2-c:2′,1′-f][1,3,2]diazaborinin-3-yl)propanamido)hexanamide], in experiment [2], the “specific NanoBRET signal” value was “largest specific NanoBRET signals”.

As for `O=C(CCCCCNC(=O)COc1ccc(/C=C/C2=[N+]3C(=Cc4ccc(-c5cccs5)n4[B-]3(F)F)C=C2)cc1)NCCNC(=O)CCNc1nc2c(s1)C=Cc1cc(Cl)ccc1C2c1cn(Cc2nc(C(=O)Nc3nnn[nH]3)cs2)c(=O)[nH]c1=S` (centres unmarked) [Example 97, (E)-2-((5-(7-Chloro-2-((3-((2-(6-(2-(4-(2-(5,5-difluoro-7-(thiophen-2-yl)-5H-4λ^4,5λ^4-dipyrrolo[1,2-c:2′,1′-f][1,3,2]diazaborinin-3-yl)vinyl)phenoxy)acetamido)hexanamido)ethyl)amino)-3-oxopropyl)amino)-4H-benzo[5,6]cyclohepta[1,2-d]thiazol-4-yl)-2-oxo-4-thioxo-3,4-dihydropyrimidin-1(2H)-yl)methyl)-N-(1H-tetrazol-5-yl)thiazole-4-carboxamide], in experiment [4], the “membrane-specific fluorescence after pretreatment with 1” value is reported as “substantially reduced”; the “confocal imaging: fluorescence localisation” value was “localized membrane fluorescence and very little intracellular fluorescence”. Moreover, the Kb in experiment [3] (setting [5]) was 2040 nM.

On to `CC1=CC(C)=[N+]2C1=Cc1ccc(CCC(=O)NCCCCCC(=O)NCCNC(=O)CCNc3nc4c(s3)C=Cc3cc(Cl)ccc3C4c3cn(Cc4nc(C(=O)Nc5nnn[nH]5)cs4)c(=O)[nH]c3=S)n1[B-]2(F)F` (centres unmarked) [Example 98, (E)-2-((5-(7-Chloro-2-((3-((2-(6-(3-(5,5-difluoro-7,9-dimethyl-5H-5λ^4,6λ^4-dipyrrolo[1,2-c:2′,1′-f][1,3,2]diazaborinin-3-yl)propanamido)hexanamido)ethyl)amino)-3-oxopropyl)amino)-4H-benzo[5,6]cyclohepta[1,2-d]thiazol-4-yl)-2-oxo-4-thioxo-3,4-dihydropyrimidin-1(2H)-yl)methyl)-N-(1H-tetrazol-5-yl)thiazole-4-carboxamide], for which the Kd in experiment [2] (Table 6, read-out: NanoBRET pKd (converted)) was 479 nM. In experiment [4], the “membrane-specific fluorescence after pretreatment with 1” value is reported as “substantially reduced”; the “confocal imaging: fluorescence localisation” value is “localized membrane fluorescence and very little intracellular fluorescence”. The Kb in experiment [3] (setting [5]) is 1350 nM.

In the case of `O=c1ccn([C@@H]2O[C@H](COP(=O)(O)OP(=O)(O)OP(=O)(O)O)[C@@H](O)[C@H]2O)c(=O)[nH]1` [UTP, uridine-5′-triphosphate], in experiment [1], the EC50 is 140 nM.

In the case of “(E)-N1-(2-(6-(2-(4-(2-(5,5-Difluoro-7-(thiophen-2-yl)-5H-4λ^4,5λ^4-dipyrrolo[1,2-c:2′,1′-f][1,3,2]diazaborinin-3-yl)vinyl)phenoxy)acetamido)hexanamido)ethyl)-5-((5-(2,8-dimethyl-5H-dibenzo[a,d][7]annulen-5-yl)-2-oxo-4-thioxo-3,4-dihydropyrimidin-1(2H)-yl)methyl)-N3-(1H-tetrazol-5-yl)isophthalamide [Example 67]”, in experiment [2], the “NanoBRET pKd” value was 5.78 ± 0.18 (3).

Consider “(E)-N1-(18-(4-(2-(5,5-Difluoro-7-(thiophen-2-yl)-5H-4λ^4,5λ^4-dipyrrolo[1,2-c:2′,1′-f][1,3,2]diazaborinin-3-yl)vinyl)phenoxy)-10,17-dioxo-3,6-dioxa-9,16-diazaoctadecyl)-5-((5-(2,8-dimethyl-5H-dibenzo[a,d][7]annulen-5-yl)-2-oxo-4-thioxo-3,4-dihydropyrimidin-1(2H)-yl)methyl)-N3-(1H-tetrazol-5-yl)isophthalamide [Example 69]”, for which the “NanoBRET pKd” value in experiment [2] is 6.07 ± 0.15 (3).
